Source: patent US11208412B2 (DAEGU-GYEONGBUK MEDICAL INNOVATION FOUNDATION, priority 2017, dated 2021)

Legend:
Experiment in all cases: Kinase selectivity, DiscoverX scanMAX Kinase assay panel (% control)
Type in all cases: binding
[1] = molecular target: T1, kinases of the scanMAX Kinase assay panel (Homo sapiens, UniProt Q59H18); details: kinase TNNI3K; 1 uM in DMSO
T1 construct: purchased DiscoverX Co. (contract measurement) scanMAX Kinase assay panel
T1 sequence (Q59H18 1-835): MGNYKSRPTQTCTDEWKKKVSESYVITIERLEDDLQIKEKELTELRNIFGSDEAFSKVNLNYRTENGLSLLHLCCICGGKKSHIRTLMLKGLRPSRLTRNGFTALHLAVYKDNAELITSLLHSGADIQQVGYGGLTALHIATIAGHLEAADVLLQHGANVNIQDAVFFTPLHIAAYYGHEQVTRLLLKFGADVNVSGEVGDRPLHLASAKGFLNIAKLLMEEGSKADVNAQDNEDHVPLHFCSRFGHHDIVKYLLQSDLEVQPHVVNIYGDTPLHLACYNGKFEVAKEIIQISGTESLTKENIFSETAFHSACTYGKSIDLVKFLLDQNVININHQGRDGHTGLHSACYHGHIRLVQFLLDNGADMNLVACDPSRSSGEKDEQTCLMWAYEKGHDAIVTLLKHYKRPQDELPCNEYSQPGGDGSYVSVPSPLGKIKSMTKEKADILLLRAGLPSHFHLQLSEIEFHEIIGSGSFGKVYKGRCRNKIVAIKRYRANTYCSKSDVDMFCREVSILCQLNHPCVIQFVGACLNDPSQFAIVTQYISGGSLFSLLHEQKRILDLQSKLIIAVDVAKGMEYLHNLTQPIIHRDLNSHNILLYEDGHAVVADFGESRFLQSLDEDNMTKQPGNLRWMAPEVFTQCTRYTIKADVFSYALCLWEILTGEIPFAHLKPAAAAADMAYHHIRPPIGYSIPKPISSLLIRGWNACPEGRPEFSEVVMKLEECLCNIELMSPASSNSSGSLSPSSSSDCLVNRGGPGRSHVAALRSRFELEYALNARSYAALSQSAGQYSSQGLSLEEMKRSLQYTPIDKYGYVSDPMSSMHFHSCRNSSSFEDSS
Summary of the method: (§1)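 Single-point screen, 1 uM cpd in DMSO. % ctrl = (cpd − pos ctrl)/(neg ctrl − pos ctrl)×100; pos ctrl = 0%, DMSO neg ctrl = 100%. Hit cutoff <35%.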

[2] = molecular target: T2, kinases of the scanMAX Kinase assay panel (Homo sapiens, UniProt Q9Y6E0); details: MST3; 1 uM
T2 construct: purchased DiscoverX Co. (contract measurement) scanMAX Kinase assay panel
Summary of the method: as §1

[3] = molecular target: T3, kinases of the scanMAX Kinase assay panel (Homo sapiens, UniProt Q16513); details: PKN2; 1 uM
T3 construct: purchased DiscoverX Co. (contract measurement) scanMAX Kinase assay panel
T3 sequence (Q16513 whole entry): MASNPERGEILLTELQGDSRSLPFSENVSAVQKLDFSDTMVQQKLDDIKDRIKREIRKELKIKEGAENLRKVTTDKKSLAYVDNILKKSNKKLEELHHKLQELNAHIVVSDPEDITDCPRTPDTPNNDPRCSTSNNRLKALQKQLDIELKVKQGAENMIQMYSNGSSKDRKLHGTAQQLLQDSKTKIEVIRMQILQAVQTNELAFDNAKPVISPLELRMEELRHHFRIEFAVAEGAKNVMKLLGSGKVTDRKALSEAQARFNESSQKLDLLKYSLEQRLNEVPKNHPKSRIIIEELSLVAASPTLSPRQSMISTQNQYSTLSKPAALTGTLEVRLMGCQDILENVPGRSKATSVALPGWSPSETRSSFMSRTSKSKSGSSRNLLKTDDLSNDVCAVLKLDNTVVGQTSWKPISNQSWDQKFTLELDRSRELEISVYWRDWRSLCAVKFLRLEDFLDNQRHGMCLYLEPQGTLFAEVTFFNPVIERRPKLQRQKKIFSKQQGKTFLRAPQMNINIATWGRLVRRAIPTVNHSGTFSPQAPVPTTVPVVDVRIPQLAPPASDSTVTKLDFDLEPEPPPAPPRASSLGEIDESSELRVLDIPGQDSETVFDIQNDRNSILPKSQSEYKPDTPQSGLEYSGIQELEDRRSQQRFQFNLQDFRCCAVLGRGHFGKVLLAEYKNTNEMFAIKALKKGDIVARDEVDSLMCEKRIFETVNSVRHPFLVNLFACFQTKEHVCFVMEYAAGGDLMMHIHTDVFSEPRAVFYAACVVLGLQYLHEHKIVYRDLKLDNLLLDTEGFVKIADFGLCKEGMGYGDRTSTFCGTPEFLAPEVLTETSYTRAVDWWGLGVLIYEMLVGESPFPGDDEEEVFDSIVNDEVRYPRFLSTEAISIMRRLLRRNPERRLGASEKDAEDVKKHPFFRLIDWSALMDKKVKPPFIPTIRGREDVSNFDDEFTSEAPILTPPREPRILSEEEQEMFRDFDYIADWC
Summary of the method: as §1

[4] = molecular target: T4, kinases of the scanMAX Kinase assay panel (Homo sapiens, UniProt Q13627); details: DYRK1A; 1 uM
T4 construct: purchased DiscoverX Co. (contract measurement) scanMAX Kinase assay panel
Summary of the method: as §1

[5] = molecular target: T5, kinases of the scanMAX Kinase assay panel (Homo sapiens, UniProt Q8NEB9); details: kinase VPS34; 1 uM in DMSO
T5 construct: purchased DiscoverX Co. (contract measurement) scanMAX Kinase assay panel
T5 sequence (Q8NEB9 whole entry): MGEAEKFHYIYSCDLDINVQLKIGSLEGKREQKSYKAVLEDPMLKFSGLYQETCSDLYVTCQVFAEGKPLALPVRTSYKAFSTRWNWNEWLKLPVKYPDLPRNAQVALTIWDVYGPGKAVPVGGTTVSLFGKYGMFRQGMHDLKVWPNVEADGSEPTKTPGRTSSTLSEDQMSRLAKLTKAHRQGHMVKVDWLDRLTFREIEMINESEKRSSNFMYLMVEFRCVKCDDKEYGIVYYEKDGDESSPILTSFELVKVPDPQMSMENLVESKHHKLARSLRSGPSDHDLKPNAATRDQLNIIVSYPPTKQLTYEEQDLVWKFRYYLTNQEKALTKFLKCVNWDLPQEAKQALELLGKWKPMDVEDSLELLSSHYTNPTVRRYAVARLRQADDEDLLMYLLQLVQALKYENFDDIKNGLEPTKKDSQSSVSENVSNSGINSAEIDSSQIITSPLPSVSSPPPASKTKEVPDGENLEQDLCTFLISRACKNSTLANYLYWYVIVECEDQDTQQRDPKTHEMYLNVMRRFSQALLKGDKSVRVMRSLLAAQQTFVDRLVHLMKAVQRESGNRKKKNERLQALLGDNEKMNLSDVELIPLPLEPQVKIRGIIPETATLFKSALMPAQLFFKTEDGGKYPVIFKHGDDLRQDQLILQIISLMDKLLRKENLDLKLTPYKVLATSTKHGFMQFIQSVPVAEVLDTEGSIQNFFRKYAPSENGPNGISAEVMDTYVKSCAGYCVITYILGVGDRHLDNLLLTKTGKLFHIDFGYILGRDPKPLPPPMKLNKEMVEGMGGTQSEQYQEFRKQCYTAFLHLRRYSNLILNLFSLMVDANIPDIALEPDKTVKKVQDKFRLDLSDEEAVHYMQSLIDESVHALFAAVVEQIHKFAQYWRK
Summary of the method: as §1

[6] = molecular target: T6, kinases of the scanMAX Kinase assay panel (Homo sapiens, UniProt P78362); details: kinase SRPK2; 1 uM in DMSO
T6 construct: purchased DiscoverX Co. (contract measurement) scanMAX Kinase assay panel
T6 sequence (P78362 whole entry): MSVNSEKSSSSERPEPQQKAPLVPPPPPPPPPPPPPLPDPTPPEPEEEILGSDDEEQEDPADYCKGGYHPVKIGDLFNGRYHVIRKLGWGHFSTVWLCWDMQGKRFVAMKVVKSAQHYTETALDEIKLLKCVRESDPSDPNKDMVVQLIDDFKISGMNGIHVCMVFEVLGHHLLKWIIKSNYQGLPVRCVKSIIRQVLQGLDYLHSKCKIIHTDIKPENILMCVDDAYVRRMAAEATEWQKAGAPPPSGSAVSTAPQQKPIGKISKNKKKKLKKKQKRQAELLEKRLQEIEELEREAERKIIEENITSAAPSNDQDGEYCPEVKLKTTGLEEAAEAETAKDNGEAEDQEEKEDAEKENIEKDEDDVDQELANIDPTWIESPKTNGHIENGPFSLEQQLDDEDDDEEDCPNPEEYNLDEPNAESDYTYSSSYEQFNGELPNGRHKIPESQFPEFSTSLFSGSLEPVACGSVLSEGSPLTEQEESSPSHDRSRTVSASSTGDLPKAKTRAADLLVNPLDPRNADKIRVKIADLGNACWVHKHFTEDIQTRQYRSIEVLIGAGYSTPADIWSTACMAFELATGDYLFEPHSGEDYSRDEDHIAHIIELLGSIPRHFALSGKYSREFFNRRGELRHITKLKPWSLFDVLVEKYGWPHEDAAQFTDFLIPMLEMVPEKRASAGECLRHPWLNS
Summary of the method: as §1

[7] = molecular target: T7, kinases of the scanMAX Kinase assay panel (Homo sapiens, UniProt P42336, M1043I); details: PIK3CA(M1043I); 1 uM
T7 construct: purchased DiscoverX Co. (contract measurement) scanMAX Kinase assay panel
Summary of the method: as §1

[8] = molecular target: T8, kinases of the scanMAX Kinase assay panel (Homo sapiens, UniProt Q9BWU1); details: CDK11; 1 uM
T8 construct: purchased DiscoverX Co. (contract measurement) scanMAX Kinase assay panel
Summary of the method: as §1

[9] = molecular target: T9, kinases of the scanMAX Kinase assay panel (Homo sapiens, UniProt Q7L7X3); details: kinase TAOK1; 1 uM in DMSO
T9 construct: purchased DiscoverX Co. (contract measurement) scanMAX Kinase assay panel
T9 sequence (Q7L7X3 1-1001): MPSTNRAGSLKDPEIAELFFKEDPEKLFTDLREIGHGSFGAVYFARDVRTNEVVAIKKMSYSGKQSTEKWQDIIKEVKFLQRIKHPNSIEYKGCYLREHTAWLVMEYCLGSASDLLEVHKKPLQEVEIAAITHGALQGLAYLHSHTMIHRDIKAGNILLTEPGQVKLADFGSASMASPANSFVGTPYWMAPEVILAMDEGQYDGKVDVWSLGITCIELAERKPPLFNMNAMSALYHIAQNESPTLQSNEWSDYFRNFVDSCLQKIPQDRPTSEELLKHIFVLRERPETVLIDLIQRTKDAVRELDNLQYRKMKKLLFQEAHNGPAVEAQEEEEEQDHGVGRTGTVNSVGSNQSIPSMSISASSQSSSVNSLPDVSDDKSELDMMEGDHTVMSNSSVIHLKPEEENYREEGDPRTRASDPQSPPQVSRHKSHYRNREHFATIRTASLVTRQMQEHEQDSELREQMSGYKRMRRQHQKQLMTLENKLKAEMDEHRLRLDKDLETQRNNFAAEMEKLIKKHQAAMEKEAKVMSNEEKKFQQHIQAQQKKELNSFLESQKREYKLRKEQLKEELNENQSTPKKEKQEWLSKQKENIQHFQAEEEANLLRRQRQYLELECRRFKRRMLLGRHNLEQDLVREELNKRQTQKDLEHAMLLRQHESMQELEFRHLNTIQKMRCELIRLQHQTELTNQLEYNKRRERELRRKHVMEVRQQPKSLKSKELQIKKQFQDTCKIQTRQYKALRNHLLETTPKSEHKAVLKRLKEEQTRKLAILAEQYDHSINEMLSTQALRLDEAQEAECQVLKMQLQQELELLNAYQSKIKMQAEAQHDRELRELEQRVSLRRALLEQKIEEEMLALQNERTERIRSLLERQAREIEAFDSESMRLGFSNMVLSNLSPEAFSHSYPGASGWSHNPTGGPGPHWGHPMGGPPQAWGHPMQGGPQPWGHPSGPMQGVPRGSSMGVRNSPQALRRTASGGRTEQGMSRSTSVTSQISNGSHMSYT
Summary of the method: as §1

[10] = molecular target: T10, kinases of the scanMAX Kinase assay panel (Homo sapiens, UniProt Q14289); details: PYK2; 1 uM
T10 construct: purchased DiscoverX Co. (contract measurement) scanMAX Kinase assay panel
Summary of the method: as §1

[11] = molecular target: T11, kinases of the scanMAX Kinase assay panel (Homo sapiens, UniProt Q5S007); details: LRRK2; 1 uM
T11 construct: purchased DiscoverX Co. (contract measurement) scanMAX Kinase assay panel
T11 sequence (Q5S007 whole entry): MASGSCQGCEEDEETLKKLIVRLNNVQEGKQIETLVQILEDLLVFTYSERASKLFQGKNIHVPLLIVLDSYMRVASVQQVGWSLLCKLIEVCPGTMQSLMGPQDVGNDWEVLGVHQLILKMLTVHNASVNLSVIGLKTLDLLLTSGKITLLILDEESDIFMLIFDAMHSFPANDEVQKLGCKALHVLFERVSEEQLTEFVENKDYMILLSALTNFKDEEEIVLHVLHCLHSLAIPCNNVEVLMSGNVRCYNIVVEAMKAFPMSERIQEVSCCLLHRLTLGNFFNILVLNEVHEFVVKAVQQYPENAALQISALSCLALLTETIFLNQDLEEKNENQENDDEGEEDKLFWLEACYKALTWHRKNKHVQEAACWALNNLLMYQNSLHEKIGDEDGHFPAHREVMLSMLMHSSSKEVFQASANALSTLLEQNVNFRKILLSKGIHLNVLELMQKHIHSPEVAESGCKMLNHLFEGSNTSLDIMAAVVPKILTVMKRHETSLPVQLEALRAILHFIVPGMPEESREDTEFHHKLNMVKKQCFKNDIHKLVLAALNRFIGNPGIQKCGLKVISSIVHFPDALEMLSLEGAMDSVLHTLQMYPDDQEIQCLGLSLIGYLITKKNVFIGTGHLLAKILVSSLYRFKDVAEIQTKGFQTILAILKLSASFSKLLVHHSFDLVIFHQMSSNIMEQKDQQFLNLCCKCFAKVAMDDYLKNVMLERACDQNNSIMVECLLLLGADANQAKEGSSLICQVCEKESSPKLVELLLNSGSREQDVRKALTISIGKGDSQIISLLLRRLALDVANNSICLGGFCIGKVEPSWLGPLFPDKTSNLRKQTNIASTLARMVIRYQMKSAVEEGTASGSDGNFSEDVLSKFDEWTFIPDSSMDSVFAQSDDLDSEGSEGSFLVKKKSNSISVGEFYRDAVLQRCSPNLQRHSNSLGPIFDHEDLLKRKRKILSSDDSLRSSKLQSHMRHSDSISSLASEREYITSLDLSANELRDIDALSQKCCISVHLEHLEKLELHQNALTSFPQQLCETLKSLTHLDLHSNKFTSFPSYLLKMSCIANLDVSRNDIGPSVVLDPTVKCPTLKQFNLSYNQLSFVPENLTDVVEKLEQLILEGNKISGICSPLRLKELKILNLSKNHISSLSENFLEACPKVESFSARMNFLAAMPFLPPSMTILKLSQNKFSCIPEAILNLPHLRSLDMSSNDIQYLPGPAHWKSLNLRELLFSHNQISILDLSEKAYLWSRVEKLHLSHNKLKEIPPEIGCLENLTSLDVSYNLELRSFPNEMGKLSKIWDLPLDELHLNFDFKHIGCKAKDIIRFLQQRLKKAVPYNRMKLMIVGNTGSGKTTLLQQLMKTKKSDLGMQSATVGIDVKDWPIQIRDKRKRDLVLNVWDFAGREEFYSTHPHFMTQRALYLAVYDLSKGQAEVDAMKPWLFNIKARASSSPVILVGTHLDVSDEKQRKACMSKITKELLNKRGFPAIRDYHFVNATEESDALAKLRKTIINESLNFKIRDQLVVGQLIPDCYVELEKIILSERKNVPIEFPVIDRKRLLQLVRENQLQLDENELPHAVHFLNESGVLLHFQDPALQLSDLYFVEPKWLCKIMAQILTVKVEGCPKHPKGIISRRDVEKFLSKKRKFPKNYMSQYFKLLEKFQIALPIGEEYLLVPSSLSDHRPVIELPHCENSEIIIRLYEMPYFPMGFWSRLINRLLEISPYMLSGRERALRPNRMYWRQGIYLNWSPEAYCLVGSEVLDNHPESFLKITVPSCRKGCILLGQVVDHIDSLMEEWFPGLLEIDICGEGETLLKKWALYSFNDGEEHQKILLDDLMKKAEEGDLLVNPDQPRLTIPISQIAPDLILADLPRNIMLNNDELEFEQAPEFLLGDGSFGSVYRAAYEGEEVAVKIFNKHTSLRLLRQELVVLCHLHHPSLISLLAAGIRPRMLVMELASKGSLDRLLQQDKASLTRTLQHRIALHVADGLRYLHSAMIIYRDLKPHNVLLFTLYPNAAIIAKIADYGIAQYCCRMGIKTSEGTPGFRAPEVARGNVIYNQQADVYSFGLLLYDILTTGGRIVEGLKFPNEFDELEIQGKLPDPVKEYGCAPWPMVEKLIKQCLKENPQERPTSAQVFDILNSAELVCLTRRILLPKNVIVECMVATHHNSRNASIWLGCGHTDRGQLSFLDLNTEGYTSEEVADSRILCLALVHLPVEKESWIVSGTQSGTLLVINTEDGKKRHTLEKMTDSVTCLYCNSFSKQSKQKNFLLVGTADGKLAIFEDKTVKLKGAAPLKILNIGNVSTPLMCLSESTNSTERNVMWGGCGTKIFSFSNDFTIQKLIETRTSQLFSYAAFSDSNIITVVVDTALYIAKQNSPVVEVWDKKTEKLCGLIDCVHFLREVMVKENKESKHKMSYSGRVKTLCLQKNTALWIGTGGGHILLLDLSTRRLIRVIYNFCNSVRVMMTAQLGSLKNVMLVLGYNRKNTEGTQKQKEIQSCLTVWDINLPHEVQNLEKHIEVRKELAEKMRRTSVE
Summary of the method: as §1

| SMILES | remaining binding at 1 µM [1] [%] | remaining binding at 1 µM [2] [%] | remaining binding at 1 µM [3] [%] | remaining binding at 1 µM [4] [%] | remaining binding at 1 µM [5] [%] | remaining binding at 1 µM [6] [%] | remaining binding at 1 µM [7] [%] | remaining binding at 1 µM [8] [%] | remaining binding at 1 µM [9] [%] | remaining binding at 1 µM [10] [%] | remaining binding at 1 µM [11] [%] |
| --- | --- | --- | --- | --- | --- | --- | --- | --- | --- | --- | --- |
| CCNc1nc(Nc2ccc(C(=O)N3CCC(N4CCOCC4)CC3)cc2OC)nc2[nH]cc(C(F)(F)F)c12 [Example 104, (4-((4-(ethylamino)-5-(trifluoromethyl)-7H-pyrrolo[2,3-d]pyrimidine-2-yl)amino)-3-methoxyphenyl)(4-morpholinopiperidine-1-yl)methanone] | 100 | 84 | 100 | 0.05 | 78 | 74 | 84 | 96 | 85 | 2.8 | 1.2 |
| CNc1nc(Nc2ccc(C(=O)N3CCOCC3)cc2OC)nc2[nH]cc(C#N)c12 [Example 1, 2-((2-methoxy-4-(morpholine-4-carbonyl)phenyl)amino)-4-(methylamino)-7H-pyrrolo[2,3-d]pyrimidine-5-carbonitrile] | 99 | 86 | 53 | 4.1 | 84 | 100 | 94 | 87 | 73 | 25 | 0 |
| CC1(Nc2nc(Nc3cnn([C@H]4CCN(C5COC5)C[C@@H]4F)c3Cl)nc3[nH]cc(C#N)c23)CC1 [Example 52, 2-((5-chloro-1-((3S,4S)-3-fluoro-1-(oxetane-3-yl)piperidine-4-yl)-1H-pyrazole-4-yl)amino)((1-methylcyclopropyl)amino)-7H-pyrrolo[2,3-d]pyrimidine-5-carbonitrile] | 93 | 25 | 78 | 0.15 | 100 | 58 | 37 | 100 | 6.5 | 1.2 | 0 |
